Assay results published in paper PMC7305291, “Cryo-EM snapshots of mycobacterial arabinosyltransferase complex EmbB2-AcpM2” (Protein & Cell, 2020).
Substitutions are numbered along the chain they refer to.

Legend:
[1] = target: T1, EmbB2-AcpM2 complex (Msm EmbB) (Mycolicibacterium smegmatis, UniProt A0R614); experiment: cryo-EM structure of the complex, […] Å; mass spectrometry of co-purified lipid; type: binding; details: endogenous donor substrate, bound in one protomer of the asymmetric active state
T1 construct: gene MSMEG_6389; full-length EmbB, C-terminal 10xHis tag, pMV261 vector, homologous overexpression in M. smegmatis, detergent purified then amphipol exchanged; homodimer with endogenous co-purified AcpM on each protomer; with Meromycolate extension acyl carrier protein
T1 sequence (A0R614 1-1082): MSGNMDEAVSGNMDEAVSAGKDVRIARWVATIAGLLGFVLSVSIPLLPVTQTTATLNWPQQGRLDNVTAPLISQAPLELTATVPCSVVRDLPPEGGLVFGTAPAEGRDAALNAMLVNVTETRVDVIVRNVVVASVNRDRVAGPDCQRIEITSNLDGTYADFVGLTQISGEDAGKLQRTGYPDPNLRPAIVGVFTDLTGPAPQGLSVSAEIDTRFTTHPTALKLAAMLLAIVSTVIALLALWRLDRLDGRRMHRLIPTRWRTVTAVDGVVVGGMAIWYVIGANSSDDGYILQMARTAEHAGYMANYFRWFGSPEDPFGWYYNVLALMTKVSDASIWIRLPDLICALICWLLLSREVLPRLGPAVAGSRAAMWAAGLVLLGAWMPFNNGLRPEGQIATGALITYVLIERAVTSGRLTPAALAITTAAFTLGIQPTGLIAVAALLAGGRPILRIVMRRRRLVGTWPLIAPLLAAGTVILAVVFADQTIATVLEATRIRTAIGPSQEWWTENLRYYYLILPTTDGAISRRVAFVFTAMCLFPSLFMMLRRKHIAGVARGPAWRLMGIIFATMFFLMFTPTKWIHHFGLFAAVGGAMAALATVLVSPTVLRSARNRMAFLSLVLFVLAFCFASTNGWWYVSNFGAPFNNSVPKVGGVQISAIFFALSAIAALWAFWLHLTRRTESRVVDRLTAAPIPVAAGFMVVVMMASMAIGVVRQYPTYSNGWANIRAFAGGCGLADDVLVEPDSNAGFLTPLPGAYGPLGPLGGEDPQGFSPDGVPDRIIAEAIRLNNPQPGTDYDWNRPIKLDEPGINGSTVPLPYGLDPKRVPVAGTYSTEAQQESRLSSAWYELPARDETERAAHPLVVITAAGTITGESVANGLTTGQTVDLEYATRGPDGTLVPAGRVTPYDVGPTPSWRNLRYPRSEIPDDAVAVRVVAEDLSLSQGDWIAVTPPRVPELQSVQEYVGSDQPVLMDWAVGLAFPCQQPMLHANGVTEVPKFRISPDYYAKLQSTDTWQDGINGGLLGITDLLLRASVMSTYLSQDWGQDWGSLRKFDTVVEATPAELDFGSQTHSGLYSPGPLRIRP
T1 sequence (A0R0B3 1-99 partner): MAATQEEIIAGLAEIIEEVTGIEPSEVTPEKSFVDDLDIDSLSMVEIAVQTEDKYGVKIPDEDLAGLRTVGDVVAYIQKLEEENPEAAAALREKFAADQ

[2] = target: T1, EmbB2-AcpM2 complex (Msm EmbB); experiment: microscale thermophoresis (MST); type: binding
[3] = target: the molecule itself; experiment: cryo-EM structure; detergent purified, amphipol exchanged EmbB with co-purified endogenous AcpM; single-particle analysis; two 3D classes refined: symmetric resting state (3.6 A) and asymmetric DPA-bound active state (3.5 A)

CC(C)=CCC/C(C)=C/CC/C(C)=C\CC/C(C)=C\CC/C(C)=C\CC/C(C)=C\CC/C(C)=C\CC/C(C)=C\CC/C(C)=C\CC/C(C)=C\COP(=O)(O)O[C@@H]1O[C@H](CO)[C@@H](O)[C@@H]1O [decaprenyl-phosphate-arabinose]
cryo-EM structure of the complex, 3.5 Å; mass spectrometry of co-purified lipid [1]: The whole of the DPA fits into this part of the map

CC[C@@H](CO)NCCN[C@@H](CC)CO [ethambutol]
Kd [2]: 1.58 µM

B1: Mycobacterium smegmatis arabinosyltransferase EmbB (MSMEG_6389) (enzyme, UniProt Q50395 1-1082, looked up)
chain: T1 sequence (A0R614 1-1082) with M453I, V459D, N508K, I579T
notes: arabinosyltransferase EmbB of Mycobacterium smegmatis, locus MSMEG_6389; 69.6% identical to Mtb EmbB (Rv_3795); Seen as a homodimer by cryo-EM, with one AcpM on each protomer (EmbB2-AcpM2); also called Msm EmbB; EmbB protomer
stoichiometry N [3]: 2
